{"source": "patent US10722518B2", "about": "“Oxazine derivative for use in the treatment or prevention of cerebral amyloid angiopathy” (Novartis AG, priority 2016, dated 2020)", "key": {"Aβ42": {"test_system": "Aβ42", "experiment": "Chronic treatment of APP23 mice: Triton TX-100 soluble Aβ42 in brain", "format": "in vivo, mouse", "method": "(§1) Frozen mouse forebrains were weighed and homogenized in 9 volumes (w/v) of ice-cold TBS-Complete (20 mM Tris-HCl pH 7.4, 137 mM NaCl, 1× Complete [Protease Inhibitor Cocktail Tablets: 1 836 145, Roche Diagnostics GmbH, Penzberg, Germany]) by sonication (90% duty cycle, output control 5, 40-55 pulses, [Sonifier 450, Branson]). After homogenization several 50 μl aliquots were prepared for analysis and were stored at −80° C.\nHuman Aβ40 and 42 in mice was determined with the Meso Scale Discovery (MSD) 96-well MULTI-ARRAY human/rodent (6E10) Aβ40/42 Assay (Meso Scale Discovery, Rockville, Md., USA) as described in [RD-2010-00284]. The assay was done according to the manufacturer's instructions except for the calibration curve and the sample preparations. […]\nThe calibration curve was prepared in a corresponding dilution of 1% Blocker A solution spiked with synthetic Aβ1-40 peptide (1.56-100 pg/ml) except for non-transgenic mouse brain samples: In this case, the calibration curve was prepared in a correspondingly diluted APP knockout mouse forebrain spiked with synthetic Aβ1-40 peptide (1.56-100 pg/ml). […] The relative units for samples and standards were imported into SOFTmax PRO 4.0 for calculation of standard curves and quantification of samples. […]"}, "[1]": {"experiment": "3-month dose-ranging safety and tolerability study", "format": "in vivo, human", "conditions": "once-daily doses of 2, 10, 35 and 85 mg over three months; healthy elderly", "from_the_text": "This study is listed in ClinicalTrials.gov under the NCT02576639 Identifier code.\nThe primary purpose of this study was to expand on previous safety and tolerability data obtained over 2-week and 4-week duration in the first in human study and thereby allow initiation of future long-term efficacy trials in subjects at risk of AD and CAA. In addition, data relevant for Pharmacokinetic/Pharmacodynamic modeling was obtained in order to support dose selection decisions for future efficacy studies."}, "Aβ40 in CSF": {"test_system": "Aβ40 in CSF", "experiment": "First-in-human single and multiple ascending oral dose study: Aβ40 in CSF", "format": "in vivo", "conditions": "for Dose-dependent lowering of Aβ40 concentrations in CSF, up to: healthy elderly subjects", "method": "The purpose of this study was to determine the single and multiple maximum tolerated dose of Compound 1 and to assess the pharmacokinetic/pharmacodynamic (PK/PD) relationship using Aβ in CSF as primary PD biomarker.\nPharmacodynamic assessments using Aβ concentrations in CSF as primary biomarker of drug action were also been applied in healthy elderly subjects. Dose-dependent lowering of Aβ40 concentrations was determined up to approximately 80% and 90% after single and multiple dosing, respectively (Tables 9 and 10, FIG. 7).\nIn the completed first-in-human and 3-month dose-ranging safety and tolerability clinical studies described in Examples 3 and 4, Aβ concentrations in CSF were obtained by means of lumbar punctures before the first dose (baseline) and respectively after 2 weeks and 3 months of multiple dosing. ApoE4 genotype also was obtained in the subjects who consented. The percent change from baseline in Aβ40 and Aβ42 concentrations was calculated in subjects who took the study treatment and had no major protocol deviation with potential impact on the evaluation of the pharmacodynamic effect. Tables 13 to 16 below provide summary statistics of the percent change from baseline by treatment group and ApoE genotype (E4 heterozygotes versus E4 non-carriers). Only one subject with CSF data was E4 homozygote (from the 3-month dose-ranging safety and tolerability study)."}, "Aβ40": {"test_system": "Aβ40", "experiment": "Chronic treatment of APP23 mice: formic acid soluble Aβ40 in forebrain", "format": "in vivo, mouse", "conditions": "high Compound 1 treatment group", "method": "as §1\nFifty microliter of forebrain homogenate was mixed with 116.6 μl 100% formic acid, resulting in a final formic acid concentration of 70%. Samples were stored on ice and vortexed every 5 minutes. For neutralization, 50 μl of the mixture were pipetted into a new tube, and 950 μl of 1 M Tris base, containing 1× Complete Protease inhibitor, was added. Tubes were stored at room temperature overnight and then centrifuged for 15 minutes at 14000 rpm in an Eppendorf Microzentrifuge at 4° C. From the top layer, 100 μl are removed and mixed with 100 μl of 3% Blocker A solution (part of the MesoScale assay kit). This sample was either directly applied to the assay plate (dilution 1:1332) or further diluted in 1% Blocker A solution.\nAmyloid-β42 increased more than Aβ40 (Aβ42/40 ratio increased by 55% in the vehicle group), in agreement with its higher aggregation propensity."}, "[2]": {"experiment": "13-week oral safety study in aged APP23 mice: plasma and brain concentrations of Compound 1 (toxicokinetics)", "format": "in vivo", "conditions": "female, APP23, mouse, 0.3 g/kg food", "method": "Sections of brain were collected at necropsy from all scheduled animals. […] Rest of the brain was fixed in 10% neutral-buffered formalin.\nBlood was obtained from all the animals at necropsy. Approximately 0.3 mL of whole blood was collected after euthanasia from the vena cava into tubes containing EDTA as anticoagulant. The tubes were placed in ice water during the sampling period. Plasma was separated thereafter by centrifugation (10 min, 1270 G, +4° C.) and transferred to one uniquely labelled clear tube (1.8 mL NUNC 2D coded tubes from Thermo) and frozen at −70° C. or below.\nAbout 100 to 200 mg of brain tissue were collected, weighed into 1.8 mL NUNC 2D coded tubes from Thermo, and frozen at −70° C. or below."}}}
{"compound": "C[C@@]1(c2nc(NC(=O)c3ncc(C(F)(F)F)cc3Cl)ccc2F)CO[C@@](C)(C(F)(F)F)C(N)=N1", "note": "[Compound 1, N-(6-((3R,6R)-5-amino-3,6-dimethyl-6-(trifluoromethyl)-3,6-dihydro-2H-1,4-oxazin-3-yl)-5-fluoropyridin-2-yl)-3-chloro-5-(trifluoromethyl)picolinamide]", "values": [{"measurement": "Aβ42 change vs vehicle (TX-100 soluble)", "setting": "Aβ42; 0.03 g/kg vs vehicle", "value": "−20.1", "unit": "%"}, {"measurement": "Aβ42 change vs vehicle (TX-100 soluble)", "setting": "Aβ42; 0.3 g/kg vs vehicle", "value": "−77.3", "unit": "%"}, {"measurement": "safety and tolerability", "setting": "[1]", "value": "safe and tolerated"}, {"measurement": "Dose-dependent lowering of Aβ40 concentrations in CSF, up to", "setting": "Aβ40 in CSF; multiple dosing", "value": "~90", "unit": "%"}, {"measurement": "Aβ40 in CSF percent change from baseline, Median", "setting": "Aβ40 in CSF; single dose 10 mg, 24 h", "value": "−14.3", "unit": "%"}, {"measurement": "Dose-dependent lowering of Aβ40 concentrations in CSF, up to", "setting": "Aβ40 in CSF; single dosing", "value": "approximately 80%"}, {"measurement": "reduction of deposited Aβ40 and 42 vs vehicle", "setting": "Aβ40", "value": "around 80%"}, {"measurement": "concentration at 13 weeks", "setting": "[2]; brain (cerebellum, level 7), end of the study", "value": 4030, "unit": "ng/g"}, {"measurement": "Kp at 96 day", "setting": "[2]; brain / plasma, day 96, read-out: brain concentration compared to plasma, range", "value": "2.2 to 6.1"}, {"measurement": "Kp at 13 weeks", "setting": "[2]; brain / plasma, end of the study, read-out: average of the ratio brain over plasma", "value": 3.3}, {"measurement": "concentration at 13 weeks", "setting": "[2]; plasma, end of the study", "value": 1210, "unit": "ng/mL"}]}
